In general, pIC50 refers to −log10 of the IC50, conventionally taken in molar units.

pIC50: −log10 of the molar value.

This experiment relates to PAF-induced aggregation of human thrombocytes. The experiment can be described thus: Inhibition of PAF-induced blood platelet aggregation in vitro. In kind it is cell-based. The conditions noted are these: thrombocyte-rich plasma, aggregation induced with PAF 5×10^-8 M, concentration giving a 50% inhibition of aggregation, read-out: PAF-Antag. IC50. Here is the method: 1. Inhibition of blood platelet aggregation in vitro
The PAF-induced aggregation of human thrombocytes in vitro is used to determine PAF-antagonistic activity. To obtain thrombocyte-rich plasma (TRP) blood is taken from an uncongested vein using a plastic syringe containing 3.8% sodium citrate solution. The ratio of sodium citrate solution to blood is 1:9. After careful mixing the citrate blood is centrifuged for 20 minutes at 150 g (1200 rpm). The thrombocyte aggregation is measured using the method devised by Born and Cross (G. V. R. Born and M. J. Cross, J. Physiol. 168, 178 (1963)), by adding an aggregation initiator (PAF) to the TRP with constant stirring.
The test substance is added 2 to 3 minutes before aggregation is initiated in a volume of 10 μl. Either distilled water, ethanol and/or dimethylsulphoxide (each in suitable concentrations) can be used as solvent.
Control mixtures contain corresponding volumes of these solvents. After the initial absorption has been recorded (2 to 3 minutes) aggregation is induced with PAF (5×10^-8 M).
The maximum of the first aggregation wave is used to assess the effects of the substance. The PAF-induced maximum absorption rate (=maximum aggregation×100%) is tested at the same time in a parallel mixture (=control mixture in one of the channels of the two-channel aggregometer) as each test mixture (second channel) and is used as a 100% value.
The aggregation value attained under the effect of the test substance is given as a percentage of the control value, i.e. less than 100% in the case of an inhibition of aggregation and over 100% in the case of an increase.
Each test substance is investigated at concentrations of from 10^-3 to 10^-8 M with a random sampling of n=4 with regard to an inhibitory effect on the PAF-induced thrombocyte aggregation. Then a concentration-activity curve is drawn up using 3 concentrations and the IC50 is determined (concentration giving a 50% inhibition of aggregation).
Turning to `COC(=O)c1ccc2c(c1)C(c1ccccc1Cl)=NCC(=O)N2` [compound 29], the pIC50 was 3.92.
`COc1ccc2c(c1)C(c1ccccc1Cl)=NCC(=O)N2` [compound 25]: the pIC50 was less than 4.00.
The result for `O=C1CN=C(c2ccccc2Cl)c2c(sc3c2CCOC3)N1` [compound 26] reads 4.10.
The same measure for `CN1C(=O)CN=C(c2ccccc2Cl)c2cc(Br)sc21` [compound 11]: 3.77; for `COc1cccc2c1NC(=O)CN=C2c1ccccc1Cl` [compound 27]: 3.45.
Turning to `O=C1CN=C(c2ccccc2Cl)c2cc([N+](=O)[O-])ccc2N1` [compound 3], the pIC50 is 4.10.
The result for `CCn1nc(C)c2c1NC(=O)CN=C2c1ccccc1Cl` [compound 15] reads 3.06; that for `O=C1CN=C(c2ccccc2Cl)c2sccc2N1` [compound 16], 3.30; that for `O=C1CN=C(c2ccccc2)c2cc([N+](=O)[O-])ccc2N1` [compound 2], 3.66.
The result for `CN1C(=O)CN=C(c2ccccc2F)c2cc([N+](=O)[O-])ccc21` [compound 4] reads 4.34.
For the molecule `CCn1nc(C)c2c1C(c1ccccc1)=NCC(=S)N2` [compound 20], the pIC50 was 3.60.
The result for `CCC1N=C(c2ccccc2Cl)c2ccsc2NC1=O` (centres unmarked) [compound 23] reads 3.09; that for `Cc1csc2c1C(c1ccccc1)=NCC(=O)N2` [compound 12], 3.55; that for `CN1CCN=C(c2ccccc2)c2c(Cl)nsc21` [compound 18], 3.96.
The same measure for `S=C1CN=C(c2ccccc2)c2cc(Cl)ccc2N1` [compound 19]: 3.21; for `CCc1cc2c(s1)NC(=O)CN=C2c1ccccc1Cl` [compound 10]: 3.49.
The same measure for `Cc1nc2c(n1C)C(c1ccccc1)=NCC(=O)N2` [compound 30]: less than 4.30; for `Cc1ccc2c(c1)C(c1ccccc1Cl)=NCC(=O)N2` [compound 22]: 3.24.
`O=C1CN=C(c2ccccc2Cl)c2cc(Cl)ccc2N1` [compound 28]: the pIC50 was less than 4.00.
Turning to `CN1C(=O)CN=C(c2ccccc2)c2cc([N+](=O)[O-])cnc21` [compound 7], the pIC50 was 3.42.
Consider `O=C1CN=C(c2ccccc2Cl)c2c(sc3c2CCCS3)N1` [compound 14], for which the pIC50 was 3.63.
For `N#CCCn1nnc2c1NC(=O)CN=C2c1ccccc1Cl` [compound 17], the negative-log IC50 (pIC50) was 3.00.
Turning to `CN1C(=O)CN=C(c2ccccc2)c2cc(Cl)ccc21` [compound 1], the pIC50 was 3.60.
On to `CCN(CC)CCN1C(=O)CN=C(c2ccccc2F)c2cc(Cl)ccc21` [compound 5], for which the pIC50 was 4.10.
The same measure for `O=C1CN=C(c2ccccc2Cl)c2ccsc2N1` [compound 9]: 3.12.
On to `CN1CCN=C(c2ccccc2Cl)c2cc(Cl)ccc21` [compound 21], for which the negative-log IC50 (pIC50) is 3.44.
Take `CCC1N=C(c2ccccc2Cl)c2cc(Br)sc2NC1=O` (centres unmarked) [compound 24]: the pIC50 is 3.28.
In the case of `CN1C(=O)CN=C(c2ccccc2Cl)c2cc([N+](=O)[O-])sc21` [compound 13], the pIC50 is 3.70.
Regarding `O=C1CN=C(c2ccccc2)c2cc([N+](=O)[O-])cnc2N1` [compound 8], the pIC50 was 3.60.

For the origin of these results see patent US4623646A, “PAF-antagonistic diazepines, methods of use” (Boehringer Ingelheim KG, priority 1984, dated 1986).
